From patent US20240382487A1, “NOVEL COPI/ARF1-LIPOLYSIS PATHWAY INHIBITOR AND COMPOUND FOR ERADICATING CANCER STEM CELLS AND INDUCING DAMP-MEDIATED ANTI-TUMOR IMMUNE RESPONSE” (FUDAN UNIVERSITY, priority 2020, published 2024)
Like-named read-outs stand apart in the source and are kept apart here.

How the values were obtained:
[1] = test system: normal human bone marrow hematopoietic stem cells (HSCs)
Text: (§4) We tested 10 reported Arf1 inhibitors (Bill et al., 2011; Boal et al., 2010; Feng et al., 2004; Newton et al., 2006; Ohashi et al., 2012; Sáenz et al., 2009; Sorieul et al., 2011; Viaud et al., 2007), including brefeldin A (BFA), Golgicide A (GCA), LM11, Secin16, Secin H3, Secin B7, Exo1, Exo2, LG8, and LG18, on Drosophila stem cell tumors and normal human bone marrow hematopoietic stem cells (HSCs).

[2] = test system: Drosophila stem cell tumors; assay: Drosophila screen (stem cell / intestinal tumors); format: in vivo
Text: as §4

B16-F10 melanoma [3] = assay: Drug-treated B16-F10 cells in athymic nude mice; format: in vivo; design: unit not given here; conditions: cells treated with 10 μM Du 102
Experimental: (§1) The immunogenicity of the reagents can be tested in mouse vaccination models (Obeid et al., 2007; Sagiv barfi et al., 2018). One flank of the mouse was injected with drug treated tumor cells, followed one week later by a second injection of syngeneic tumor cells. We tested the vaccine efficacy in CT-26 colon cancer, B16-F10 melanoma, and 4T1 breast cancer treated with DMSO or du102.
(§2) Cells will be treated with 10 μM Du 102 or DMSO treated CT26, 4T1 and B16-F10 tumor cells (5×10^5\1×10^5 and 5×10^5, respectively) were subcutaneously inoculated into 6-week-old female mice. After 7 days, equal amounts of corresponding tumor cells were seeded to the right side. Tumor cell lines were mixed with Matrigel (GIBCO, cat s̆ 354234) or resuspended in PBS and injected subcutaneously or intradermally.

B16-F10 melanoma [4] = assay: Vaccination model, drug-treated B16-F10 cells in C57B/6 mice; format: in vivo; design: unit not given here; conditions: B16-F10, C57B/6 mice; for tumor size, left side with drug treatment: cells treated with 10 μM Du 102
Arf1 = biological target: T1, Arf1 (Homo sapiens, UniProt P84077); assay: Active Arf1 Pull-Down and Detection Kit (GTP-bound Arf1); format: biochemical; conditions: liver cancer Huh-7 cell lysate; FIG. 1
T1 construct: Active Arf1 was detected by using The Thermo Scientific Pierce Active Arf1 Pull-Down and Detection Kit (Cat #16121) with liver cancer Huh-7 cell lysate; endogenous in cells; host or cells: Huh-7 liver cancer cells (lysate)
T1 sequence (P84077 whole entry): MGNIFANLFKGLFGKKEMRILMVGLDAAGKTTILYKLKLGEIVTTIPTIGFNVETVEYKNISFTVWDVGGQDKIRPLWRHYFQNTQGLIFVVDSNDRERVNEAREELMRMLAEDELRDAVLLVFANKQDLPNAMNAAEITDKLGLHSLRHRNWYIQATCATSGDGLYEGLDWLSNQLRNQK
Text: Active Arf1 was detected by using The Thermo Scientific Pierce Active Arf1 Pull-Down and Detection Kit (Cat #16121) with liver cancer Huh-7 cell lysate. It is a complete kit for selective enrichment and detection of GTP-bound Arf1 GTPase through specific protein interaction with the GGA3 protein-binding domain (FIG. 1).

CT-26 colon cancer = assay: Vaccination model, drug-treated CT-26 cells in BALB/c mice; format: in vivo; design: tumor size, left side with drug treatment / tumors on right side after vaccination on left side: unit not given here; conditions: CT-26, BALB/c mice; for tumor size, left side with drug treatment: cells treated with 10 μM Du 102; for tumors on right side after vaccination on left side: untreated cells re-challenge
CT-26 colon carcinoma = assay: Drug-treated CT-26 cells in athymic nude mice; format: in vivo; design: unit not given here; conditions: cells treated with 10 μM Du 102
Experimental: as §1, §2

liver cancer cell Huh7 = assay: In vitro cell line screening, Huh7; format: cell-based
Text: (§3) In different tumor cytotoxicity experiments in vitro (FIG. 2-FIG. 7), including colorectal cancer cell lines HT29 and LoVo cells, liver cancer cell Huh7, lung cancer cells H460 and A549, the arf1 inhibitor could all inhibit tumor cell growth (FIG. 2-FIG. 6), and there was a dose-dependent manner (FIG. 7).

IL-1β [5] = assay: IL-1β induction, B16-F10 melanoma model; format: cell-based; conditions: B16-F10 melanoma model in C57B/6 mice
Text: Example 7. Dulo2 Treatment Induces IL-1 in B16-F10 Melanoma of C57B/6 Mice. (Table 12)

mice = assay: Toxicity in mice, oral gavage; format: in vivo; conditions: mouse, in vivo, po
IL-1β [6] = assay: IL-1β assay, CD11c+ DCs co-cultured with treated CT26 cells; format: cell-based; conditions: CT-26 colon cancer model, BALB/c mice; co-culture 2 days
Experimental: For IL-1 β Assay: seven days after CT26 cell lysate injection. CD11c+DCs were isolated from injected BALB/c mice and co cultured with CT26 cells treated with DMSO or du102. After 2 days, […] was measured in harvested cells (Table 11). For the IFN-y assay: CD11c^+ DC and CD8^+ T cells were isolated from injected BALB/c mice 7 days after CT26 cell lysate injection and co cultured with CT26 cells treated with DMSO or du102. After 2 days. IFN-y was measured in harvested cells (table 11).

[7] = test system: chemokines and T cell activation markers; assay: Chemokines and T cell activation markers by quantitative RT-PCR in MYC-ON mice; format: in vivo
Experimental: Chemokines and T cell activation markers were measured by quantitative RT-PCR in DMSO or du102 treated MYC-ON mice. CD8 T cell infiltration and immunostimulatory cytokine expression were increased as measured by quantitative RT-PCR. […] CCL5 and CXCL10 chemokines stimulate CD4+ and CD8+ lymphocytes tumor infiltration (Parkes et al., 2017), and CXCL10 and CXCL11 are T cell associated chemokines.

lung cancer cells A549 = assay: In vitro cell line screening, A549; format: cell-based
Text: as §3

[8] = test system: colorectal cancer cell line LoVo; assay: In vitro cell line screening, LoVo; format: cell-based
Text: as §3

lung cancer cells H460 = assay: In vitro cell line screening, H460; format: cell-based
Text: as §3

1H-indolo-5-carbaldehyde 5,6,7,8,9,10-hexahydrocycloocta[4,5]thieno[2,3-d]pyrimidin-4-ylhydrazone [Du 102]
toxicity (killing normal HSCs) [1]: relatively low toxicity | in vivo tumor suppressive effects ([2]; Drosophila screen, FIG. 8): good in vivo tumor suppressive effects | killing Drosophila stem cell tumors ([2]; in vivo): effective | B16-F10 melanoma tumor in Athymic mice (B16-F10 melanoma [3]; Day 0): 0 | B16-F10 melanoma tumor in Athymic mice (B16-F10 melanoma [3]; Day 5): 7.3 | B16-F10 melanoma tumor in Athymic mice (B16-F10 melanoma [3]; Day 10): 51.8 | B16-F10 melanoma tumor in Athymic mice (B16-F10 melanoma [3]; Day 15): 202.7 | B16-F10 melanoma tumor in Athymic mice (B16-F10 melanoma [3]; Day 20): 355.9 | B16-F10 melanoma tumor in Athymic mice (B16-F10 melanoma [3]; Day 25): 853.4 | tumors on right side after vaccination on left side (B16-F10 melanoma [4]; Day 0): 0 | tumor size, left side with drug treatment (B16-F10 melanoma [4]; Day 0): 0 | tumors on right side after vaccination on left side (B16-F10 melanoma [4]; Day 5): 0 | tumor size, left side with drug treatment (B16-F10 melanoma [4]; Day 5): 0 | tumors on right side after vaccination on left side (B16-F10 melanoma [4]; Day 10): 0 | tumor size, left side with drug treatment (B16-F10 melanoma [4]; Day 10): 2 | tumors on right side after vaccination on left side (B16-F10 melanoma [4]; Day 15): 0.6 | tumor size, left side with drug treatment (B16-F10 melanoma [4]; Day 15): 8 | tumors on right side after vaccination on left side (B16-F10 melanoma [4]; Day 20): 1.3 | tumor size, left side with drug treatment (B16-F10 melanoma [4]; Day 20): 57 | tumors on right side after vaccination on left side (B16-F10 melanoma [4]; Day 25): 9.1 | tumor size, left side with drug treatment (B16-F10 melanoma [4]; Day 25): 81 | tumors on right side after vaccination on left side (B16-F10 melanoma [4]; Day 30): 21.3 | tumor size, left side with drug treatment (B16-F10 melanoma [4]; Day 30): 177 | inhibition of arf1 activation (Arf1): potent inhibitors | regression of both left- and right-sided tumours (CT-26 colon cancer; tables 3 and 4): almost complete regression | tumor size, left side with drug treatment (CT-26 colon cancer; Day 0): 0 | tumors on right side after vaccination on left side (CT-26 colon cancer; Day 0): 0 | tumor size, left side with drug treatment (CT-26 colon cancer; Day 5): 0 | tumors on right side after vaccination on left side (CT-26 colon cancer; Day 5): 0 | tumor size, left side with drug treatment (CT-26 colon cancer; Day 10): 2 | tumors on right side after vaccination on left side (CT-26 colon cancer; Day 10): 0 | tumor size, left side with drug treatment (CT-26 colon cancer; Day 15): 8 | tumor size, left side with drug treatment (CT-26 colon cancer; Day 20): 57 | tumors on right side after vaccination on left side (CT-26 colon cancer; Day 20): 3.7 | tumor size, left side with drug treatment (CT-26 colon cancer; Day 25): 81 | tumors on right side after vaccination on left side (CT-26 colon cancer; Day 25): 7.6 | tumor size, left side with drug treatment (CT-26 colon cancer; Day 30): 178 | tumors on right side after vaccination on left side (CT-26 colon cancer; Day 30): 14.1 | CT-26 colon carcinoma tumor in Athymic mice (CT-26 colon carcinoma; Day 0): 0 | CT-26 colon carcinoma tumor in Athymic mice (CT-26 colon carcinoma; Day 5): 0 | CT-26 colon carcinoma tumor in Athymic mice (CT-26 colon carcinoma; Day 10): 15 | CT-26 colon carcinoma tumor in Athymic mice (CT-26 colon carcinoma; Day 15): 117 | CT-26 colon carcinoma tumor in Athymic mice (CT-26 colon carcinoma; Day 20): 417 | CT-26 colon carcinoma tumor in Athymic mice (CT-26 colon carcinoma; Day 25): 859 | tumor suppressive effect (liver cancer cell Huh7): Tumor suppression effect | tumor suppressive effect (liver cancer cell Huh7; listed as Dul02): effective tumor suppressive effects | IL-1β (IL-1β [5]): 952 | toxic effects (mice): no toxic effects were observed | IL-1β (IL-1β [6]): 954 | Ccl5 expression ([7]; DMSO 1.0): 2.4 | Col22 expression ([7]; DMSO 1.0): 2.5 | Cxcl11 expression ([7]; DMSO 1.0): 2.8 | GzmA expression ([7]; DMSO 1.0): 2.3 | GzmB expression ([7]; DMSO 1.0): 1.9 | IL-1β expression ([7]; DMSO 1.0): 2.5 | PD-L1 expression ([7]; DMSO 1.0): 0.4 | Perforin expression ([7]; DMSO 1.0): 2.2 | Cxcl10 expression ([7]; DMSO 1.1): 3.1 | INFγ expression ([7]; DMSO 1.1): 3.2 | tumor suppressive effect (lung cancer cells A549): potency tumor suppressive effect | tumor suppressive effect (lung cancer cells A549; listed as Dul02): effective tumor suppressive effects | tumor suppressive effect [8]: some tumor suppressive effect | tumor suppressive effect ([8]; listed as Dul02): effective tumor suppressive effects | tumor suppressive effect (lung cancer cells H460): potency tumor suppressive effect | tumor suppressive effect (lung cancer cells H460; listed as Dul02): effective tumor suppressive effects
